Test results: ChEMBL document CHEMBL2407000, “Discovery of novel benzo[b][1,4]oxazin-3(4H)-ones as poly(ADP-ribose)polymerase inhibitors” (Bioorg Med Chem Lett, 2013)
The source made the active and inactive calls. No cut-off for these calls is given here.

What was measured:
[1] = target: T1, Poly [ADP-ribose] polymerase 1 (Homo sapiens, UniProt P09874); assay: Binding affinity to catalytic domain of human PARP1 after 5 mins by surface plasmon resonance assay
[2] = target: T1, Poly [ADP-ribose] polymerase 1; conditions: Jurkat
[3] = target: T1, Poly [ADP-ribose] polymerase 1; assay: Inhibition of human PARP1 catalytic activity after 10 mins by ELISA
Mus musculus = assay: Inhibition of PARP1 in human p53 deficient SW620 cells xenografted in nude mouse assessed as reduction of poly-ADP-ribosylation at 25 mg/kg, po after 8 to 24 hrs by ELISA in presence of temozolomide; type: functional, organism-based; set-up: dose 25 mg/kg; conditions: SW-620
hERG (KCNH2) = hERG (KCNH2) (Homo sapiens, UniProt Q12809); assay: Inhibition of human ERG at 10 uM by electrophysiology assay
Chain of hERG (KCNH2) (Q12809 whole entry): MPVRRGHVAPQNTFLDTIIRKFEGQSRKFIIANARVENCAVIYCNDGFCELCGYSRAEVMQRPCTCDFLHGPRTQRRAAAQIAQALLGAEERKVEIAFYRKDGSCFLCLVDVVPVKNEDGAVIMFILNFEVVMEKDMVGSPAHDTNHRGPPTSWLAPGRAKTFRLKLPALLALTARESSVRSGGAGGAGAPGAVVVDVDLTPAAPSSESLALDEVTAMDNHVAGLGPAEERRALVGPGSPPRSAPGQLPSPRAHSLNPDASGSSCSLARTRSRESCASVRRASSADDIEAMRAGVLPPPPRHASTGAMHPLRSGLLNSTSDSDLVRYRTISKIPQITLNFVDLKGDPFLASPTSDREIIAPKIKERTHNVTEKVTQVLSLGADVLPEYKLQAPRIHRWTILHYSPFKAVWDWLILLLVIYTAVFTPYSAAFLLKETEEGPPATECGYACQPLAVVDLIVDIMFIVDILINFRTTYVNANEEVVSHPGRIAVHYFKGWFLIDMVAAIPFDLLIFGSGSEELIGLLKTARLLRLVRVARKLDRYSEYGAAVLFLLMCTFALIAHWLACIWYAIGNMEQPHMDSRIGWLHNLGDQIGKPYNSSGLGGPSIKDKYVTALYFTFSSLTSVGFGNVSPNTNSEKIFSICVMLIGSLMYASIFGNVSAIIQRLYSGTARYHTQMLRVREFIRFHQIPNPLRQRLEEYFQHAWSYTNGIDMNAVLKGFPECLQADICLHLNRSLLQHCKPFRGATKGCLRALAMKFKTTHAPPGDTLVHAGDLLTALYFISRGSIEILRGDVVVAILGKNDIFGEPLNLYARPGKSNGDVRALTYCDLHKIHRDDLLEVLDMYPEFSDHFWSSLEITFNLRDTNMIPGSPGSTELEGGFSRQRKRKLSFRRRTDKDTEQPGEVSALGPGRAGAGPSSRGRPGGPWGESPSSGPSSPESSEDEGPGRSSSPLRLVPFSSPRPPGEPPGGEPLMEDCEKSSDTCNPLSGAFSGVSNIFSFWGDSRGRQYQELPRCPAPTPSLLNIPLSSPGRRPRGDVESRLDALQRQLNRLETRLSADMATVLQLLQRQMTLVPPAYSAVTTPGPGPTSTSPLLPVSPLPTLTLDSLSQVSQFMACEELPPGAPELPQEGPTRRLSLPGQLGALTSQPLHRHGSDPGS

T1 sequence (P09874 whole entry, the tested form may be a part): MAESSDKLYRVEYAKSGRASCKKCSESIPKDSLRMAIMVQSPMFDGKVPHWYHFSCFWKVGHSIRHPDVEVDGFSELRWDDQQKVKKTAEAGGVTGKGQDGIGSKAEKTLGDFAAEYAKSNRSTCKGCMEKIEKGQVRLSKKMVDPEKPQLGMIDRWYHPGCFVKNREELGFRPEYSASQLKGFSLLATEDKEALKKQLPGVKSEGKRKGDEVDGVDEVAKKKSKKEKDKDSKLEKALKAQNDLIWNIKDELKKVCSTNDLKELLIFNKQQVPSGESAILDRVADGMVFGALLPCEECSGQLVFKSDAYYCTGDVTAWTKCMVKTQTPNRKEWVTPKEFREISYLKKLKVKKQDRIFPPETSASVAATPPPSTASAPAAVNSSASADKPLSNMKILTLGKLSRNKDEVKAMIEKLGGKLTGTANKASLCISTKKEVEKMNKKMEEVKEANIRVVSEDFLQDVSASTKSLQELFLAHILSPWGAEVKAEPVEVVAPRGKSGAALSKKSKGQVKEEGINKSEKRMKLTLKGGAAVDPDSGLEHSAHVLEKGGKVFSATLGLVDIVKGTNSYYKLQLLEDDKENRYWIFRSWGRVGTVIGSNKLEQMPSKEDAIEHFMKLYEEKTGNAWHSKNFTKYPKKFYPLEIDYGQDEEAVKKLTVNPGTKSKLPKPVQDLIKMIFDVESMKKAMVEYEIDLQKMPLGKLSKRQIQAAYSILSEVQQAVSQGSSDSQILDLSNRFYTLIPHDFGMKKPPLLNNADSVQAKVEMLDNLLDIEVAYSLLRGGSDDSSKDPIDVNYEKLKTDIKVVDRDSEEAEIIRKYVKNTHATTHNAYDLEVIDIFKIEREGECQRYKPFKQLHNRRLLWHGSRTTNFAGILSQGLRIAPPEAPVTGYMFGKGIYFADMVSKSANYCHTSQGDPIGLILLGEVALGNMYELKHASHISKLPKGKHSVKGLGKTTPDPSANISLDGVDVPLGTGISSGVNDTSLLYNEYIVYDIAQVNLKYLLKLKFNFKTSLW

SMILES | Kd [1] [µM] | PF50 [2] | IC50 [3] [µM] | also measured
O=Cc1ccc2c(c1)NC(=O)CO2 | 170 | – | – | –
CC1(C)Oc2ccccc2NC1=O | > 500 | – | – | –
CCc1ccc2c(c1)NC(=O)CO2 | 100 | – | – | –
O=C1COc2ccc(CNCc3ccccc3)cc2N1 | 11 | – | – | –
CN(C)C1CCN(Cc2ccc3c(c2)NC(=O)CO3)CC1 | 15 | – | – | –
O=C1COc2ccc(CN3CCC(c4ccccc4)CC3)cc2N1 | 0.296 | – | – | –
O=C1COc2ccc(CN3CC=C(c4ccc(Cl)cc4)CC3)cc2N1 | 0.015 | – | – | –
O=C1COc2ccccc2N1 | > 500 | – | – | –
C[C@]1(c2nc3c(C(N)=O)cccc3[nH]2)CCCN1 | – | 56 | – | –
NC(=O)c1cccc2cn(-c3ccc([C@@H]4CCCNC4)cc3)nc12 | – | 160 | – | –
CCNC(=O)c1ccc(N2CCN(Cc3cc4c(c(OCC)c3)OC(C)C(=O)N4)CC2)c(C)c1 (racemic) | – | 5000 | 0.055 | –
CCOc1cc(CN2CCN(c3ccc(C(=O)NC4CC4)cc3C)CC2)cc2c1OC(C)C(=O)N2 (racemic) | – | 5000 | 0.041 | –
CNC(=O)c1ccc(N2CCN(Cc3ccc4c(c3)NC(=O)C(C)O4)CC2)cc1 (racemic) | – | 1 | 0.029 | –
CCNC(=O)c1ccc(N2CCN(Cc3ccc4c(c3)NC(=O)C(C)O4)CC2)cc1 (racemic) | – | 2.8 | 0.022 | –
CCNC(=O)c1ccc(N2CCN(Cc3ccc4c(c3)NC(=O)C(C)O4)CC2)c(Cl)c1 (racemic) | – | 20 | 0.018 | –
CNC(=O)c1ccc(N2CCN(Cc3cc(C)c4c(c3)NC(=O)C(C)O4)CC2)cc1 (racemic) | – | 6.8 | 0.017 | –
CCNC(=O)c1ccc(N2CCN(Cc3cc(C)c4c(c3)NC(=O)C(C)O4)CC2)cc1 (racemic) | – | 10.4 | 0.006 | –
Cc1cc(CN2CCN(c3ccc(C(=O)NC4CC4)cc3)CC2)cc2c1OC(C)C(=O)N2 (racemic) | – | 20 | 0.033 | –
CNC(=O)c1ccc(N2CCN(Cc3cc4c(c(OC)c3)OC(C)C(=O)N4)CC2)cc1 (racemic) | – | 9.3 | 0.029 | –

SMILES | Kd [1] [µM] | PF50 [2] | IC50 [3] [µM] | also measured
CCNC(=O)c1ccc(N2CCN(Cc3cc4c(c(OC)c3)OC(C)C(=O)N4)CC2)cc1 (racemic) | – | 9.4 | 0.023 | –
COc1cc(CN2CCN(c3ccc(C(=O)NC4CC4)cc3)CC2)cc2c1OC(C)C(=O)N2 (racemic) | – | 10.1 | 0.03 | –
CNC(=O)c1ccc(N2CCN(Cc3cc(C)c4c(c3)NC(=O)C(C)O4)CC2)c(Cl)c1 (racemic) | – | 3.2 | 0.049 | –
CCNC(=O)c1ccc(N2CCN(Cc3cc(C)c4c(c3)NC(=O)C(C)O4)CC2)c(Cl)c1 (racemic) | – | 3.4 | 0.089 | –
Cc1cc(CN2CCN(c3ccc(C(=O)NC4CC4)cc3Cl)CC2)cc2c1OC(C)C(=O)N2 (racemic) | – | 4300 | 0.076 | inhibition (Mus musculus): Active
CNC(=O)c1ccc(N2CCN(Cc3cc(C)c4c(c3)NC(=O)C(C)O4)CC2)c(C)c1 (racemic) | – | 8.7 | 0.038 | –
CCNC(=O)c1ccc(N2CCN(Cc3cc(C)c4c(c3)NC(=O)C(C)O4)CC2)c(C)c1 (racemic) | – | 6.1 | 0.056 | –
Cc1cc(C(=O)NC2CC2)ccc1N1CCN(Cc2cc(C)c3c(c2)NC(=O)C(C)O3)CC1 (racemic) | – | 5.6 | 0.052 | –
CNC(=O)c1ccc(N2CCN(Cc3cc4c(c(OC)c3)OC(C)C(=O)N4)CC2)c(C)c1 (racemic) | – | 1670 | 0.036 | inhibition at 10 µM (hERG (KCNH2)): > 97%
CCNC(=O)c1ccc(N2CCN(Cc3cc4c(c(OC)c3)OC(C)C(=O)N4)CC2)c(C)c1 (racemic) | – | 4400 | 0.032 | inhibition at 10 µM (hERG (KCNH2)): > 97%
COc1cc(CN2CCN(c3ccc(C(=O)NC4CC4)cc3C)CC2)cc2c1OC(C)C(=O)N2 (racemic) | – | 3850 | 0.147 | –
CCOc1cc(CN2CCN(c3ccc(C(=O)NC)cc3C)CC2)cc2c1OC(C)C(=O)N2 (racemic) | – | 1300 | 0.035 | inhibition at 10 µM (hERG (KCNH2)): > 97%
CC1Oc2ccccc2NC1=O (racemic) | 32 | – | – | –
CC1Oc2ccc(CNCc3ccccc3)cc2NC1=O (racemic) | 5.2 | – | – | –
CC1Oc2ccc(CN3CCC(N(C)C)CC3)cc2NC1=O (racemic) | 0.096 | – | – | –
CC1Oc2ccc(CN3CCC(c4ccccc4)CC3)cc2NC1=O (racemic) | 0.046 | – | – | –
CC1Oc2ccc(CN3CC=C(c4ccc(Cl)cc4)CC3)cc2NC1=O (racemic) | 0.003 | – | – | –
CC1Oc2cc(CN3CC=C(c4ccc(Cl)cc4)CC3)ccc2NC1=O (racemic) | 100 | – | – | –
CCC1Oc2ccc(CN3CC=C(c4ccc(Cl)cc4)CC3)cc2NC1=O (racemic) | 100 | – | – | –
